Experimental data taken from publication doi:10.1101/2025.10.16.682859v2 (biorxiv, 2025).

Tests used:
[1] = target: T1, human asparagine synthetase (ASNS) (Homo sapiens, UniProt P08243); experiment: HPLC end-point assay of L-asparagine formation; format: biochemical
T1 sequence (P08243 2-561): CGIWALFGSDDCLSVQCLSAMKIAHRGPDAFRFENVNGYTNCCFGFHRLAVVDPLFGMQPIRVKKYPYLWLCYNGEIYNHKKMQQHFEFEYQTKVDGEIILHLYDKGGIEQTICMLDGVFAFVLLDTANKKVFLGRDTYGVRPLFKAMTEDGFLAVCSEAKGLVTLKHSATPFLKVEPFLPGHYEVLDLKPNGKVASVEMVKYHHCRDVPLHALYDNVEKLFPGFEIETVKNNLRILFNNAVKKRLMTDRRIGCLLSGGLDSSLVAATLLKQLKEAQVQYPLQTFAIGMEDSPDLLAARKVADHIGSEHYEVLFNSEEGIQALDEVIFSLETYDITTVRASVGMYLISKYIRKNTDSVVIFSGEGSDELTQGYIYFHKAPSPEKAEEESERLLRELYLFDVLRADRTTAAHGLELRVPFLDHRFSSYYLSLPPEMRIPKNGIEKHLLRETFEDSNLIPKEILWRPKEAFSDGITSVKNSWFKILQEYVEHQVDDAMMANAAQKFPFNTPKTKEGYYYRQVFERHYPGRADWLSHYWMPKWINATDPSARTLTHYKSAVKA

[2] = target: T2, ASNS (endogenous, HEK-293A cells) (Homo sapiens, UniProt P08243); experiment: cellular thermal shift, immunoblot; format: cell-based; settings: cells treated with 50 nM for 1 h, lysate heated 25-90 °C
T2 sequence (P08243 2-561): T1 sequence (P08243 2-561)

[3] = target: T3, human argininosuccinate synthetase (ASS1) (Homo sapiens, UniProt P00966); experiment: differential scanning fluorimetry; format: binding; settings: 5 mM ATP, 10 mM MgCl2, pH 8.0
T3 sequence (P00966 1-412): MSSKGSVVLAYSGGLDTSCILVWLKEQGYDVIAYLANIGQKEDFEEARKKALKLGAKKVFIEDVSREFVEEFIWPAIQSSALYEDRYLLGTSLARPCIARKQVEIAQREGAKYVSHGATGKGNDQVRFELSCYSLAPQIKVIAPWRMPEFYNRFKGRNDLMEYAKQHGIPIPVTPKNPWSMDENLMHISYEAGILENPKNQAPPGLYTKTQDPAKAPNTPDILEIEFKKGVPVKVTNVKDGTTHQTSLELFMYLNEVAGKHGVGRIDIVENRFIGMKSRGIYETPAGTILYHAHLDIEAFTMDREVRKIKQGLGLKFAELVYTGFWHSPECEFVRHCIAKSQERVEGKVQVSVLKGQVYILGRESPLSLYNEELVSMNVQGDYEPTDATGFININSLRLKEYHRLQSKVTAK

Structure (SMILES) | IC50 [1] [nM] | Tm [2] [°C] | Tm [3] [°C]
CC[C@H](N)C(=O)N1C[C@@H](c2ccc(F)cc2)[C@H](O)[C@@H]1C(=O)NC(c1ccccc1)c1ccccc1 [compound 17, ASX-173] | 500 ± 200 | 45 to 54 | –
Nc1ncnc2c1ncn2[C@@H]1O[C@H](COP(=O)(O)OP(=O)(O)OP(=O)(O)O)[C@@H](O)[C@H]1O [ATP] | – | – | 47 to 52
